Here are results for 51 compounds from US20260158017A1, “KIF18A INHIBITOR” (WIGEN BIOMEDICINE TECHNOLOGY (SHANGHAI) CO., LTD., priority 2021, published 2026).

A word on the IC50: it is the concentration needed to halve the response being measured.

The assay deals with T1, Recombinant human KIF18A (1-467His-tagged) protein (Homo sapiens, UniProt Q8NI77).
T1 construct: Recombinant human KIF18A (1-467His-tagged) protein; His; made in house
T1 sequence (Q8NI77 1-467): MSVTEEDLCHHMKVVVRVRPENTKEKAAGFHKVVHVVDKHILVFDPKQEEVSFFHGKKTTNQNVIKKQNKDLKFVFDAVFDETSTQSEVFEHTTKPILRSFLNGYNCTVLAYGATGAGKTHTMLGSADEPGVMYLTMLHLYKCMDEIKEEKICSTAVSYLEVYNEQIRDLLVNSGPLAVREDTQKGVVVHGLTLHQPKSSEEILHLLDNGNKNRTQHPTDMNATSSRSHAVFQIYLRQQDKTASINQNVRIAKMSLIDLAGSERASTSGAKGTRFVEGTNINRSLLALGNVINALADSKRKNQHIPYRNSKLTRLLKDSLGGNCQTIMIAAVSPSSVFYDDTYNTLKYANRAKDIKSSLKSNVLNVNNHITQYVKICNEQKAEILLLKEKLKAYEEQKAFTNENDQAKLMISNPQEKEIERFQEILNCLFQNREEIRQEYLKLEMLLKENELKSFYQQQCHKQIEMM
T1 sequence (P02550 whole entry partner): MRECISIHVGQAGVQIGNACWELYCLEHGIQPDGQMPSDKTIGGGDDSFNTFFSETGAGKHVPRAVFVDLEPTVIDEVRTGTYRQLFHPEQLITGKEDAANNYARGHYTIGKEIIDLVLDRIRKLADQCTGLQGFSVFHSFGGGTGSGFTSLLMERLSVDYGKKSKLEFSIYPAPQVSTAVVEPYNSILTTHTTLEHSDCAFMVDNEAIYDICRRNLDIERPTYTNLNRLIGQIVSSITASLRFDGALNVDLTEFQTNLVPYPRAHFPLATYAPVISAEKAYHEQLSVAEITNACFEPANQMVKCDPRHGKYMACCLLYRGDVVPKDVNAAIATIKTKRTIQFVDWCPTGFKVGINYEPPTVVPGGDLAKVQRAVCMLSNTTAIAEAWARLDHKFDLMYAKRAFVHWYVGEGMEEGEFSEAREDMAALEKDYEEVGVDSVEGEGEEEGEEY
T1 sequence (P02554 whole entry partner): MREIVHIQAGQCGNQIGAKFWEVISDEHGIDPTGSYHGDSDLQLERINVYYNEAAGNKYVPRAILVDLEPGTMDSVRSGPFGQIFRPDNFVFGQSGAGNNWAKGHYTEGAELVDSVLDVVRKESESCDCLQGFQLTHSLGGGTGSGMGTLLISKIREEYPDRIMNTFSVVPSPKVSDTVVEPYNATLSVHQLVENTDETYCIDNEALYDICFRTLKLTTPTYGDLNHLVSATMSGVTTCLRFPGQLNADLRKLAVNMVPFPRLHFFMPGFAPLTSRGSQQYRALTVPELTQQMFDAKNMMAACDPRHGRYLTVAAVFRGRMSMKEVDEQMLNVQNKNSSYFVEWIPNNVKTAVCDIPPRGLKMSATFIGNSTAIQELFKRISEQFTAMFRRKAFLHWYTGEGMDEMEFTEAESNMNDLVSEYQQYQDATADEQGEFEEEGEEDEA
Nature of the assay: KIF18A enzyme assay (microtubule-stimulated ATPase activity, ADP-Glo). Type of assay: biochemical. As to conditions: 30 nM KIF18A, 75 μM ATP, 30 μg/mL pig microtubules; read-out: Inhibitory activity against KIF18A IC50. The protocol:
In Vitro Assay of the Compounds of the Present Invention for Inhibiting Enzymatic Activity of KIF18A
KIF18A enzyme assay: The enzymatic activity of KIF18A after treatment with the compounds was measured by an assay of microtubule-stimulated ATPase activity. ADP generated from the ATPase reaction was measured in this assay. The compounds were serially diluted 2-fold in DMSO over a range of 22 concentration points. […] Concentrations of KIF18A protein, microtubules, and ATP in the reaction were optimized for a standardized homogenous enzyme assay using an ADP-Glo kinase/ATPase assay kit. A reaction buffer [(15 mM Tris, pH 7.5), 10 mM MgCl2, 0.01% PluronicF-68, 1 μM paclitaxel, and 30 μg/mL pig microtubules] was prepared. […] The resulting reaction mixture was incubated at room temperature for another 15 min. 5 μL of ADP-Glo reagent and 2.5 μL of the reaction mixture were mixed and the resulting mixture was incubated at room temperature for 40 min. 10 μL of ADP-Glo detection reagent was added and the mixture was incubated at room temperature for 40 min. Luminescence was read using a microplate reader and compared with that of the DMSO group, and then the inhibition percentages and IC50 values of the compounds were calculated.
For `C[C@@H]1CN(c2cc(NC(=O)c3ccc(NS(=O)(=O)CCO)cc3N3CCC4(CC3)CC4)ccc2[N+](=O)[O-])CCO1` [Compound 2], the IC50 is at most 100 nM.
To `O=C(Nc1ccc([N+](=O)[O-])c(OCCC(F)(F)F)c1)c1ccc(NS(=O)(=O)CCO)cc1N1CCC2(CC1)CC2` [Compound 5] belongs at most 100 nM; to `CC1(F)CCN(c2cc(NC(=O)c3ccc(NS(=O)(=O)CCO)cc3N3CCC4(CC3)CC4)ccc2[N+](=O)[O-])C1` (stereo not drawn) [Compound 8], at most 100 nM; to `O=C(Nc1ccc([N+](=O)[O-])c(N2CCC(F)CC2)c1)c1ccc(NS(=O)(=O)CCO)cc1N1CCC2(CC1)CC2` [Compound 9], at most 100 nM.
On to `O=C(Nc1ccc([N+](=O)[O-])c(N2CC3CC3C2)c1)c1ccc(NS(=O)(=O)CCO)cc1N1CCC2(CC1)CC2` (stereo not drawn) [Compound 10], for which the concentration for half-maximal inhibition (IC50) is at most 100 nM.
Regarding `CC(C)(CO)Nc1cc(NC(=O)c2ccc(NS(=O)(=O)CCO)cc2N2CCC3(CC2)CC3)ccc1[N+](=O)[O-]` [Compound 11], the IC50 is at most 100 nM.
Turning to `O=C(Nc1ccc([N+](=O)[O-])c(N2CCOCC2)c1)c1ccc(NS(=O)(=O)CCO)cc1N1CCC2(CC1)CC2` [Compound 12], the IC50 is at most 100 nM.
Turning to `C[C@@H](CO)S(=O)(=O)Nc1ccc(C(=O)Nc2ccc([N+](=O)[O-])c(N3CCC(F)(F)CC3)c2)c(N2CCC3(CC2)CC3)c1` [Compound 13], the IC50 is at most 100 nM.
`C[C@H](CO)S(=O)(=O)Nc1ccc(C(=O)Nc2ccc([N+](=O)[O-])c(N3CCC(F)(F)CC3)c2)c(N2CCC3(CC2)CC3)c1` [Compound 14]: the concentration for half-maximal inhibition (IC50) is at most 100 nM.
With `C[C@@H]1CN(c2cc(NC(=O)c3ccc(NS(=O)(=O)[C@@H](C)CO)cc3N3CCC4(CC3)CC4)ccc2[N+](=O)[O-])CCO1` [Compound 15] the figure was at most 100 nM.
`C[C@@H]1CN(c2cc(NC(=O)c3ccc(NS(=O)(=O)[C@H](C)CO)cc3N3CCC4(CC3)CC4)ccc2[N+](=O)[O-])CCO1` [Compound 16]: the IC50 was at most 100 nM.
Consider `O=C(Nc1ccc([N+](=O)[O-])c(N2CCC(F)(F)CC2)c1)c1ccc(S(=O)(=O)NCCO)cc1N1CCC2(CC1)CC2` [Compound 17], for which the IC50 is at most 100 nM.
With `C[C@@H]1CN(c2cc(NC(=O)c3ccc(S(=O)(=O)NCCO)cc3N3CCC4(CC3)CC4)ccc2[N+](=O)[O-])CCO1` [Compound 18] the figure was at most 100 nM; with `C[C@H]1CN(c2cc(NC(=O)c3ccc(S(=O)(=O)NCCO)cc3N3CCC4(CC3)CC4)ccc2[N+](=O)[O-])CCO1` [Compound 19], at most 100 nM; with `O=C(Nc1ccc([N+](=O)[O-])c(N2CC(F)(F)C2)c1)c1ccc(S(=O)(=O)NCCO)cc1N1CCC2(CC1)CC2` [Compound 20], at most 100 nM.
To `O=C(Nc1ccc([N+](=O)[O-])c(OCCC(F)(F)F)c1)c1ccc(S(=O)(=O)NCCO)cc1N1CCC2(CC1)CC2` [Compound 21] belongs at most 100 nM; to `O=C(Nc1ccc([N+](=O)[O-])c(N2CCC3(CC3)C2)c1)c1ccc(S(=O)(=O)NCCO)cc1N1CCC2(CC1)CC2` [Compound 22], at most 100 nM; to `O=C(Nc1ccc([N+](=O)[O-])c(OC2CCC2)c1)c1ccc(S(=O)(=O)NCCO)cc1N1CCC2(CC1)CC2` [Compound 23], at most 100 nM.
As for `CC1(F)CCN(c2cc(NC(=O)c3ccc(S(=O)(=O)NCCO)cc3N3CCC4(CC3)CC4)ccc2[N+](=O)[O-])C1` (stereo not drawn) [Compound 24], the 50% inhibitory concentration (IC50) is at most 100 nM.
Regarding `O=C(Nc1ccc([N+](=O)[O-])c(N2CCC(F)CC2)c1)c1ccc(S(=O)(=O)NCCO)cc1N1CCC2(CC1)CC2` [Compound 25], the half-inhibitory concentration (IC50) was at most 100 nM.
On to `O=C(Nc1ccc([N+](=O)[O-])c(N2CC3CC3C2)c1)c1ccc(S(=O)(=O)NCCO)cc1N1CCC2(CC1)CC2` (stereo not drawn) [Compound 26], for which the IC50 is at most 100 nM.
Take `CC(C)(CO)Nc1cc(NC(=O)c2ccc(S(=O)(=O)NCCO)cc2N2CCC3(CC2)CC3)ccc1[N+](=O)[O-]` [Compound 27]: the IC50 was at most 100 nM.
Turning to `O=C(Nc1ccc([N+](=O)[O-])c(N2CCOCC2)c1)c1ccc(S(=O)(=O)NCCO)cc1N1CCC2(CC1)CC2` [Compound 28], the IC50 is at most 100 nM.
To `C[C@@H](CO)NS(=O)(=O)c1ccc(C(=O)Nc2ccc([N+](=O)[O-])c(N3CCC(F)(F)CC3)c2)c(N2CCC3(CC2)CC3)c1` [Compound 29] belongs at most 100 nM.
Consider `C[C@H](CO)NS(=O)(=O)c1ccc(C(=O)Nc2ccc([N+](=O)[O-])c(N3CCC(F)(F)CC3)c2)c(N2CCC3(CC2)CC3)c1` [Compound 30], for which the IC50 is at most 100 nM.
As for `C[C@@H]1CN(c2cc(NC(=O)c3ccc(S(=O)(=O)N[C@@H](C)CO)cc3N3CCC4(CC3)CC4)ccc2[N+](=O)[O-])CCO1` [Compound 31], the half-maximal inhibitory concentration (IC50) was at most 100 nM.
On to `C[C@H](CO)NS(=O)(=O)c1ccc(C(=O)Nc2ccc([N+](=O)[O-])c(N3CCO[C@H](C)C3)c2)c(N2CCC3(CC2)CC3)c1` [Compound 32], for which the IC50 was at most 100 nM.
Consider `O=C(Nc1ccc(NS(=O)(=O)CCO)cc1N1CCC2(CC1)CC2)c1ccc([N+](=O)[O-])c(N2CCC(F)(F)CC2)c1` [Compound 33], for which the IC50 is at most 100 nM.
As for `C[C@@H]1CN(c2cc(C(=O)Nc3ccc(NS(=O)(=O)CCO)cc3N3CCC4(CC3)CC4)ccc2[N+](=O)[O-])CCO1` [Compound 34], the IC50 was at most 100 nM.
For the compound `C[C@H]1CN(c2cc(C(=O)Nc3ccc(NS(=O)(=O)CCO)cc3N3CCC4(CC3)CC4)ccc2[N+](=O)[O-])CCO1` [Compound 35], the IC50 fell in the range of 100 to 500 nM.
Turning to `O=C(Nc1ccc(NS(=O)(=O)CCO)cc1N1CCC2(CC1)CC2)c1ccc([N+](=O)[O-])c(N2CC(F)(F)C2)c1` [Compound 36], the IC50 is at most 100 nM.
With `O=C(Nc1ccc(NS(=O)(=O)CCO)cc1N1CCC2(CC1)CC2)c1ccc([N+](=O)[O-])c(OCCC(F)(F)F)c1` [Compound 37], the half-maximal inhibitory concentration (IC50) is at most 100 nM.
Turning to `O=C(Nc1ccc(NS(=O)(=O)CCO)cc1N1CCC2(CC1)CC2)c1ccc([N+](=O)[O-])c(N2CCC3(CC3)C2)c1` [Compound 38], the 50% inhibitory concentration (IC50) was at most 100 nM.
With `O=C(Nc1ccc(NS(=O)(=O)CCO)cc1N1CCC2(CC1)CC2)c1ccc([N+](=O)[O-])c(OC2CCC2)c1` [Compound 39], the IC50 was at most 100 nM.
In the case of `CC1(F)CCN(c2cc(C(=O)Nc3ccc(NS(=O)(=O)CCO)cc3N3CCC4(CC3)CC4)ccc2[N+](=O)[O-])C1` (stereo not drawn) [Compound 40], the IC50 is at most 100 nM.
Take `O=C(Nc1ccc(NS(=O)(=O)CCO)cc1N1CCC2(CC1)CC2)c1ccc([N+](=O)[O-])c(N2CCC(F)CC2)c1` [Compound 41]: the IC50 was at most 100 nM.
In the case of `O=C(Nc1ccc(NS(=O)(=O)CCO)cc1N1CCC2(CC1)CC2)c1ccc([N+](=O)[O-])c(N2CC3CC3C2)c1` (stereo not drawn) [Compound 42], the IC50 was at most 100 nM.
Consider `CC(C)(CO)Nc1cc(C(=O)Nc2ccc(NS(=O)(=O)CCO)cc2N2CCC3(CC2)CC3)ccc1[N+](=O)[O-]` [Compound 43], for which the IC50 was at most 100 nM.
Consider `O=C(Nc1ccc(NS(=O)(=O)CCO)cc1N1CCC2(CC1)CC2)c1ccc([N+](=O)[O-])c(N2CCOCC2)c1` [Compound 44], for which the 50% inhibitory concentration (IC50) was at most 100 nM.
Regarding `C[C@@H](CO)S(=O)(=O)Nc1ccc(NC(=O)c2ccc([N+](=O)[O-])c(N3CCC(F)(F)CC3)c2)c(N2CCC3(CC2)CC3)c1` [Compound 45], the IC50 was 100 to 500 nM.
For `C[C@H](CO)S(=O)(=O)Nc1ccc(NC(=O)c2ccc([N+](=O)[O-])c(N3CCC(F)(F)CC3)c2)c(N2CCC3(CC2)CC3)c1` [Compound 46], the IC50 lay in the range of 100 to 500 nM.
As to `C[C@@H]1CN(c2cc(C(=O)Nc3ccc(NS(=O)(=O)[C@@H](C)CO)cc3N3CCC4(CC3)CC4)ccc2[N+](=O)[O-])CCO1` [Compound 47], the IC50 was in the range of 100 to 500 nM.
On to `C[C@@H]1CN(c2cc(C(=O)Nc3ccc(NS(=O)(=O)[C@H](C)CO)cc3N3CCC4(CC3)CC4)ccc2[N+](=O)[O-])CCO1` [Compound 48], for which the IC50 lay within 100 to 500 nM.
In the case of `O=C(Nc1ccc(S(=O)(=O)NCCO)cc1N1CCC2(CC1)CC2)c1ccc([N+](=O)[O-])c(N2CCC(F)(F)CC2)c1` [Compound 49], the IC50 fell in the range of 100 to 500 nM.
For the compound `C[C@@H]1CN(c2cc(C(=O)Nc3ccc(S(=O)(=O)NCCO)cc3N3CCC4(CC3)CC4)ccc2[N+](=O)[O-])CCO1` [Compound 50], the IC50 lay in the range of 100 to 500 nM.
To `C[C@H]1CN(c2cc(C(=O)Nc3ccc(S(=O)(=O)NCCO)cc3N3CCC4(CC3)CC4)ccc2[N+](=O)[O-])CCO1` [Compound 51] belongs 100 to 500 nM; to `O=C(Nc1ccc(S(=O)(=O)NCCO)cc1N1CCC2(CC1)CC2)c1ccc([N+](=O)[O-])c(N2CC(F)(F)C2)c1` [Compound 52], 100 to 500 nM; to `O=C(Nc1ccc(S(=O)(=O)NCCO)cc1N1CCC2(CC1)CC2)c1ccc([N+](=O)[O-])c(OCCC(F)(F)F)c1` [Compound 53], 100 to 500 nM.
On to `O=C(Nc1ccc(S(=O)(=O)NCCO)cc1N1CCC2(CC1)CC2)c1ccc([N+](=O)[O-])c(N2CCC3(CC3)C2)c1` [Compound 54], for which the IC50 lay within 100 to 500 nM.
With `O=C(Nc1ccc(S(=O)(=O)NCCO)cc1N1CCC2(CC1)CC2)c1ccc([N+](=O)[O-])c(OC2CCC2)c1` [Compound 55] the figure was 100 to 500 nM.
As to `CC1(F)CCN(c2cc(C(=O)Nc3ccc(S(=O)(=O)NCCO)cc3N3CCC4(CC3)CC4)ccc2[N+](=O)[O-])C1` (stereo not drawn) [Compound 56], the IC50 lay within 100 to 500 nM.
